{"source": "patent US20040043904A1", "about": "“N-(4-pyrazolyl) amide derivatives, chemicals for agricultural and horticultural use, and usage of the same” (priority 2003, published 2004)", "test_system": "green peach aphid (Myzus persicae)", "assay": "Insecticidal effect on green peach aphid (Test Example 7)", "format": "in vivo", "settings": "144 h, stems and leaves of Chinese cabbage sprayed, parasites counted six days after spraying, read-out: insecticidal effect (control efficacy)", "text": "Insecticidal Effect on Green Peach Aphid (Myzus persicae)\nA Chinese cabbage plant was planted in each of plastic pots with a diameter of 8 cm and a height of 8 cm, and green peach aphids were propagated on the plant. The number of parasites of each pot was counted.\nThen, the stems and leaves were sufficiently sprayed with the test solution. After air-drying, the pots were allowed to stand in a greenhouse.\nControl efficacy (%)=100[(T×Ca)/(Ta×C)]×100\nTa: number of parasites before spraying in treated group,\nT : number of parasites after spraying in treated group,\nCa: number of parasites before spraying in untreated group,\n[…]: number of parasites after spraying in untreated group.", "data": [{"smiles": "Cc1nn(C)c(Cl)c1NC(=O)Cc1ccc(-c2ccc(OC(F)(F)F)cc2)cc1", "note": "[Compound B-23, 5-chloro-4-(4-(4-trifluoromethoxyphenyl)phenylacetylamino)-1,3-dimethylpyrazole]", "values": [{"measurement": "pest or weed control at 500 ppm", "value": 100, "unit": "%"}]}, {"smiles": "Cc1nn(C)c(Cl)c1NC(=O)Cc1ccc2oc(CC(C)(C)C)nc2c1", "note": "[Compound C-1, 5-chloro-4-(2-(2,2-dimethylpropyl)benzoxazole-5-ylacetylamino)-1,3-dimethylpyrazole]", "values": [{"measurement": "pest or weed control at 500 ppm", "value": 100, "unit": "%"}]}, {"smiles": "CCn1ncc(NC(=O)Cc2ccc(Oc3ccc(C(F)(F)F)cn3)c(OC)c2)c1Cl", "note": "[Compound D-33, 5-chloro-4-(3-methoxy-4-(5-trifluoromethylpyridine-2-yloxy)phenylacetylamino)-1-ethylpyrazole]", "values": [{"measurement": "pest or weed control at 500 ppm", "value": 100, "unit": "%"}]}, {"smiles": "COc1cc(CC(=O)Nc2cnn(CCCl)c2Cl)ccc1Oc1ccc(C(F)(F)F)cn1", "note": "[Compound D-71, 5-chloro-4-(3-methoxy-4-(5-trifluoromethylpyridine-2-yloxy)phenylacetylamino)-1-(2-chloroethyl) pyrazole]", "values": [{"measurement": "pest or weed control at 500 ppm", "value": 100, "unit": "%"}]}, {"smiles": "CCn1ncc(NC(=O)Cc2ccc(Oc3ccc(C(F)(F)F)nn3)c(OC)c2)c1Cl", "note": "[Compound D-78, 5-chloro-4-(3-methoxy-4-(6-trifluoromethylpyridazine-3-yloxy)phenylacetylamino)-1-ethylpyrazole]", "values": [{"measurement": "pest or weed control at 500 ppm", "value": 100, "unit": "%"}]}, {"smiles": "CCn1ncc(NC(=O)Cc2ccc(Oc3ccc(C(F)(F)F)cn3)c(OC)c2)c1Br", "note": "[Compound D-79, 5-bromo-4-(3-methoxy-4-(5-trifluoromethylpyridine-2-yloxy)phenylacetylamino)-1-ethylpyrazole]", "values": [{"measurement": "pest or weed control at 500 ppm", "value": 100, "unit": "%"}]}, {"smiles": "CCn1ncc(NC(=O)Cc2ccc(Oc3nc(C(F)(F)F)cs3)c(OC)c2)c1Cl", "note": "[Compound D-94, 5-chloro-4-(3-methoxy-4-(4-trifluoromethylthiazole-2-yloxy)phenylacetylamino)-1-ethylpyrazole]", "values": [{"measurement": "pest or weed control at 500 ppm", "value": 100, "unit": "%"}]}]}
